Literature values, collected in US9125936B2, “Ginger extract for the protection of stem cells” (Symrise AG, priority 2013, dated 2015).

Settings: water (20° dH) at 20° C.; solid active agent

solubility in water: less than 5 g/L
Compound: Nc1nc2c(ncn2COCCO)c(=O)[nH]1 [Acyclovir, 2-Amino-1,9-dihydro-9-((2-hydroxyethoxy)methyl)-6H-Purin-6-one]
